Patent publication US20260365670A1, “EGFR INHIBITORS AND USES THEREOF” (DIZAL (JIANGSU) PHARMACEUTICAL CO., LTD., priority 2022, published 2026)
Like-named read-outs stand apart in the source and are kept apart here.

Columns and labels:
[1] = molecular target: T1, EGFR wild type (Homo sapiens, UniProt P00533); assay: Inhibition of EGFR wild type biochemical enzymatic activity (HTRF); conditions: 1 mM ATP
T1 construct: purchased Carna Bio
How it was run: (§1)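 Phosphorylation of TK Substrate-biotin (1 μM) was measured at 1 mM ATP over a 1 h room-temperature incubation with serially varied compound. Detection was by HTRF ratio and analysis by 4PL fit to IC50.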

[2] = molecular target: T2, EGFR L858R (Homo sapiens, UniProt P00533, L858R); assay: Inhibition of EGFR L858R biochemical enzymatic activity (HTRF); conditions: 1 mM ATP
T2 construct: purchased Carna Bio
How it was run: as §1

[3] = molecular target: T3, EGFR L858R/T790M (Homo sapiens, UniProt P00533, L858R/T790M); assay: Inhibition of EGFR L858R/T790M biochemical enzymatic activity (HTRF); conditions: 1 mM ATP
T3 construct: purchased Carna Bio
How it was run: as §1

[4] = molecular target: T4, EGFR Exon19Del (Homo sapiens, UniProt P00533, DEL746-750); assay: Inhibition of EGFR Exon19Del biochemical enzymatic activity (HTRF); conditions: read-out: IC50 @Del19
T4 construct: purchased Carna Bio
How it was run: as §1

[5] = molecular target: T5, EGFR Exon19Del/T790M (Homo sapiens, UniProt P00533, DEL746-750/T790M); assay: Inhibition of EGFR Exon19Del/T790M biochemical enzymatic activity (HTRF); conditions: 1 mM ATP
T5 construct: purchased Carna Bio
How it was run: as §1

[6] = molecular target: T6, EGFR[T790M/C797S/L858R] (Homo sapiens, UniProt P00533, C797S/L858R/T790M); assay: Inhibition of EGFR[T790M/C797S/L858R] biochemical enzymatic activity (HTRF); conditions: 1 mM ATP
T6 construct: purchased Carna Bio
How it was run: as §1

[7] = molecular target: T7, EGFR[T790M/C797S/d746-750] (Homo sapiens, UniProt P00533, C797S/DEL746-750/T790M); assay: Inhibition of EGFR[T790M/C797S/d746-750] biochemical enzymatic activity (HTRF)
T7 construct: purchased Carna Bio
How it was run: as §1

[8] = molecular target: T8, EGFR (d746-750 C797S) (Homo sapiens, UniProt P00533, C797S/DEL746-750); assay: Inhibition of EGFR (d746-750 C797S) biochemical enzymatic activity (HTRF); conditions: 1 mM ATP
T8 construct: purchased signalchem
How it was run: as §1

[9] = molecular target: T9, EGFR (C797S L858R) (Homo sapiens, UniProt P00533, C797S/L858R); assay: Inhibition of EGFR (C797S L858R) biochemical enzymatic activity (HTRF); conditions: 1 mM ATP
T9 construct: purchased signalchem
How it was run: as §1

[10] = tested on: Ba/F3 cells expressing EGFR mutations; assay: Cell proliferation assay, Ba/F3 cells expressing EGFR mutations (CellTiter-Glo, 72 hours); assay type: cell-based
How it was run: (§2)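 In RPMI1640 medium (PC-9 with 10% FBS), each cell line was seeded at its own density: Ba/F3 5000 and PC-9 500 per well. A compound series was added the next day, with a time-zero viability plate read in parallel. Percent proliferation was subtracted for G0 and referenced to DMSO, and GI50 was derived by curve fitting.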

[11] = tested on: PC-9; assay: Cell proliferation assay, PC-9 cells (CellTiter-Glo, 72 hours); assay type: cell-based; conditions: PC9 cells, read-out: GI50 PC9
How it was run: as §2

[12] = tested on: A-431; assay: Cell proliferation assay, A-431 cells (GI50, Table 6); assay type: cell-based
[13] = EGFR wild type, 1 h at room temperature, read-out: IC50 @WT
[14] = 1 h at room temperature, read-out: IC50 @L858R
[15] = EGFR L858R/T790M, 1 h at room temperature, read-out: IC50 @L858R-T790M
[16] = EGFR Exon19Del, 1 mM ATP, 1 h at room temperature
[17] = EGFR Exon19Del/T790M, 1 h at room temperature, read-out: IC50 @Del19-T790M
[18] = EGFR[T790M/C797S/L858R], 1 h at room temperature, read-out: IC50 @T790M- C797S - L858R
[19] = EGFR[T790M/C797S/d746-750], 1 mM ATP, 1 h at room temperature, read-out: IC50 @T790M - C797S - Del19
[20] = EGFR (d746-750 C797S), 1 h at room temperature, read-out: IC50 @Del19-C797S
[21] = EGFR (C797S L858R), 1 h at room temperature, read-out: IC50 @L858-C797S
[22] = Mus musculus, BaF3, 72 h, BaF3 cells, EGFR DEL19 - C797S, read-out: GI50 DEL19 - C797S/BaF3
[23] = Mus musculus, BaF3, 72 h, BaF3 cells, EGFR DEL19 - T790-C797S, read-out: GI50 DEL19 - T790-C797S/BaF3
[24] = Mus musculus, BaF3, 72 h, BaF3 cells, EGFR L858R - C797S, read-out: GI50 L858R - C797S/BaF3
[25] = Mus musculus, BaF3, 72 h, BaF3 cells, EGFR L858R - T790-C797S, read-out: GI50 L858R - T790-C797S/BaF3
[26] = Mus musculus, BaF3, 72 h, BaF3 cells, EGFR L858R - T790M, read-out: GI50 L858R - T790M/BaF3
[27] = Mus musculus, BaF3, 72 h, BaF3 cells, EGFR L858R, read-out: GI50 L858R/BaF3
[28] = Mus musculus, BaF3, 72 h, EGFR DEL19 - T790M, read-out: GI50 DEL19 - T790M
[29] = Homo sapiens, A-431, A-431 cells
[30] = BaF3 cells, EGFR DEL19 - C797S, read-out: GI50 DEL19 - C797S/BaF3
[31] = BaF3 cells, EGFR DEL19 - T790-C797S, read-out: GI50 DEL19 - T790-C797S/BaF3
[32] = BaF3 cells, EGFR L858R - C797S, read-out: GI50 L858R - C797S/BaF3
[33] = BaF3 cells, EGFR L858R - T790-C797S, read-out: GI50 L858R - T790-C797S/BaF3
[34] = BaF3 cells, EGFR L858R - T790M, read-out: GI50 L858R - T790M/BaF3
[35] = BaF3 cells, EGFR L858R, read-out: GI50 L858R/BaF3
[36] = EGFR DEL19 - T790M, read-out: GI50 DEL19 - T790M

T5 sequence (P00533 with tags, fused parts or gaps DEL746-750/T790M limits assumed): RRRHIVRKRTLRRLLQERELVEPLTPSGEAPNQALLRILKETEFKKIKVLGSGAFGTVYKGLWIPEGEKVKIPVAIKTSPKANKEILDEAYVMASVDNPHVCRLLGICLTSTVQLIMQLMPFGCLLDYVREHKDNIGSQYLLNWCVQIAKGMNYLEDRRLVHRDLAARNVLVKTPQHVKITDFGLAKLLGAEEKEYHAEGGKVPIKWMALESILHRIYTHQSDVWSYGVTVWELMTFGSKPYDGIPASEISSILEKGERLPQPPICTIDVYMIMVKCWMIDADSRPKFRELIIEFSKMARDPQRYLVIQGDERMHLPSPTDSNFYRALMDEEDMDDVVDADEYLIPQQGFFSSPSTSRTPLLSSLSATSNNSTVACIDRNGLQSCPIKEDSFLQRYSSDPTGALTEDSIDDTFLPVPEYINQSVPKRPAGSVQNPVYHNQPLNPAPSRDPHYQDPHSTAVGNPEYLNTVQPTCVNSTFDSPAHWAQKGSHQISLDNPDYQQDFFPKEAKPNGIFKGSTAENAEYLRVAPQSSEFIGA
T1 sequence (P00533 25-1210): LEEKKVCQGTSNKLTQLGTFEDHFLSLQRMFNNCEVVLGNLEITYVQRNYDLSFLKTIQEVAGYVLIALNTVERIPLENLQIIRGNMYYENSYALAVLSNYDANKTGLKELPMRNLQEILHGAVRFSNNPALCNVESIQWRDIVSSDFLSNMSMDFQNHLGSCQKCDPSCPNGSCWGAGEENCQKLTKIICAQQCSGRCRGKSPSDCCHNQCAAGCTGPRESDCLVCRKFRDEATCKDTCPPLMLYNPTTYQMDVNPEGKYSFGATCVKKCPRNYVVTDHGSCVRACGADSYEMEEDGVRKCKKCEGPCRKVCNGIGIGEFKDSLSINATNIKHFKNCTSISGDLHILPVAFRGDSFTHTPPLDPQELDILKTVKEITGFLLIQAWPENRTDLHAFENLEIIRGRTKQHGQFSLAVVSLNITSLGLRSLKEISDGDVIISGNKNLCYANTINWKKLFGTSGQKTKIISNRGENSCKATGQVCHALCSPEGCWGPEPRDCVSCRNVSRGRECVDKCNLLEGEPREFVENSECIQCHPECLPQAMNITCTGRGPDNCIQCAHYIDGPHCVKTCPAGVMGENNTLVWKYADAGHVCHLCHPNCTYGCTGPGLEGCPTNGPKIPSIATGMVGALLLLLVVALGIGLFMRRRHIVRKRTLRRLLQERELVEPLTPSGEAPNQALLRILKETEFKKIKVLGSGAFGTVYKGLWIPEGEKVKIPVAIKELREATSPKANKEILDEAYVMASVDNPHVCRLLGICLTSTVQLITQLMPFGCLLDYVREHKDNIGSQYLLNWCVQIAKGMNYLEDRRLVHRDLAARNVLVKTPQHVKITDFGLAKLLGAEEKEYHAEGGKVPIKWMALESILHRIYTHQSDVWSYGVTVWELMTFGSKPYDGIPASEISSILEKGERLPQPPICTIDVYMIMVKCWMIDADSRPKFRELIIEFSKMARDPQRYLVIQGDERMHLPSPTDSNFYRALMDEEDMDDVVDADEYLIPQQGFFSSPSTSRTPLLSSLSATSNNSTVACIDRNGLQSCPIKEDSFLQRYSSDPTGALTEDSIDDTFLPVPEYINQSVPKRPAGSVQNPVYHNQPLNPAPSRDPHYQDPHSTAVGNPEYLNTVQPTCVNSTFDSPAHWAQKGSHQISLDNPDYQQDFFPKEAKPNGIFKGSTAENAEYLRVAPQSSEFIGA
T4 sequence (P00533 with tags, fused parts or gaps DEL746-750 limits assumed): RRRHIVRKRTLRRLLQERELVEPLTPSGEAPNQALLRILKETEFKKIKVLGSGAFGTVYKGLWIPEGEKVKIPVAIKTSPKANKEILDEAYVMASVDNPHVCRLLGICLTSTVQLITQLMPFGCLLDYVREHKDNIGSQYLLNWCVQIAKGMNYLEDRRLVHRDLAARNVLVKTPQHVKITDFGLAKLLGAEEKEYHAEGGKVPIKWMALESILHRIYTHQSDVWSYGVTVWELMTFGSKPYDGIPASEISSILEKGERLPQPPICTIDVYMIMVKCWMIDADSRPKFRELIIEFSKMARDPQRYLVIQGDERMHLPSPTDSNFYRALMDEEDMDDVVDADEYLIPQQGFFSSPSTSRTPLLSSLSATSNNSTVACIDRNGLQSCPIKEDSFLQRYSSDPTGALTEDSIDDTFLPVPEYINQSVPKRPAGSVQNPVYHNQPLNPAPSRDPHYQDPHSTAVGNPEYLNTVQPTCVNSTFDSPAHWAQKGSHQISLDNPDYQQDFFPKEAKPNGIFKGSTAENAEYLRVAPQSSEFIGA
T2 sequence (P00533 25-1210 L858R): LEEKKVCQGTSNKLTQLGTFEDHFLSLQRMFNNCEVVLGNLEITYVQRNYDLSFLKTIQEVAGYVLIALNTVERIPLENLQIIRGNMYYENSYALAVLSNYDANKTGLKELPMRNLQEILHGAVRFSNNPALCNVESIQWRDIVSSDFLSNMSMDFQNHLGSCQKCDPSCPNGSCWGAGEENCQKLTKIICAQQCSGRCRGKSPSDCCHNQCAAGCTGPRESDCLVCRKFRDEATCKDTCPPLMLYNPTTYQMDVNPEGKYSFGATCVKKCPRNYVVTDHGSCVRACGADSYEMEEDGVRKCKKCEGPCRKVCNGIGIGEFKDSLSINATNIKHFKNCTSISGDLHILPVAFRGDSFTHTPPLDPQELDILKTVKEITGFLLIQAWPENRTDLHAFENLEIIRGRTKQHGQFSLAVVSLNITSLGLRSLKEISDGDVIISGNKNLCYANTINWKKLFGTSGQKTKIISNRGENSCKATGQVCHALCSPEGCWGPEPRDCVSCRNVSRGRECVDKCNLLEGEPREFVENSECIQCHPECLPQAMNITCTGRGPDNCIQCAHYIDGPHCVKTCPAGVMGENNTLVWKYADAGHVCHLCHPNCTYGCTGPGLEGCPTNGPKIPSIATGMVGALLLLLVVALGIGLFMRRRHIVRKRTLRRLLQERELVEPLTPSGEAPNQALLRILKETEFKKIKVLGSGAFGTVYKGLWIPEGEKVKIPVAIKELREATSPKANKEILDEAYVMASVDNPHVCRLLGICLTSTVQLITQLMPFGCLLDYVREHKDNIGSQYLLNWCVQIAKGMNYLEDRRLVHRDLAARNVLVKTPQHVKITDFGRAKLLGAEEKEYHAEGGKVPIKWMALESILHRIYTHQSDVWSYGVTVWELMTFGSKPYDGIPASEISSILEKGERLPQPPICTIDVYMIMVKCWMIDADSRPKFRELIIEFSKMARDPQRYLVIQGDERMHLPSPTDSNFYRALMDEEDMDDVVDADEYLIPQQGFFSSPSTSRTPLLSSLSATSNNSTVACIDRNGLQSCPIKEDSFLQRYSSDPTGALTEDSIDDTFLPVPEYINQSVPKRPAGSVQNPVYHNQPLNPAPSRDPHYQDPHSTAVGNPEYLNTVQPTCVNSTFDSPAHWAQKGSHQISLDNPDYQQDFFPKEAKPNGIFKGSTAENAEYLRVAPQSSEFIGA
T9 sequence (P00533 25-1210 C797S/L858R): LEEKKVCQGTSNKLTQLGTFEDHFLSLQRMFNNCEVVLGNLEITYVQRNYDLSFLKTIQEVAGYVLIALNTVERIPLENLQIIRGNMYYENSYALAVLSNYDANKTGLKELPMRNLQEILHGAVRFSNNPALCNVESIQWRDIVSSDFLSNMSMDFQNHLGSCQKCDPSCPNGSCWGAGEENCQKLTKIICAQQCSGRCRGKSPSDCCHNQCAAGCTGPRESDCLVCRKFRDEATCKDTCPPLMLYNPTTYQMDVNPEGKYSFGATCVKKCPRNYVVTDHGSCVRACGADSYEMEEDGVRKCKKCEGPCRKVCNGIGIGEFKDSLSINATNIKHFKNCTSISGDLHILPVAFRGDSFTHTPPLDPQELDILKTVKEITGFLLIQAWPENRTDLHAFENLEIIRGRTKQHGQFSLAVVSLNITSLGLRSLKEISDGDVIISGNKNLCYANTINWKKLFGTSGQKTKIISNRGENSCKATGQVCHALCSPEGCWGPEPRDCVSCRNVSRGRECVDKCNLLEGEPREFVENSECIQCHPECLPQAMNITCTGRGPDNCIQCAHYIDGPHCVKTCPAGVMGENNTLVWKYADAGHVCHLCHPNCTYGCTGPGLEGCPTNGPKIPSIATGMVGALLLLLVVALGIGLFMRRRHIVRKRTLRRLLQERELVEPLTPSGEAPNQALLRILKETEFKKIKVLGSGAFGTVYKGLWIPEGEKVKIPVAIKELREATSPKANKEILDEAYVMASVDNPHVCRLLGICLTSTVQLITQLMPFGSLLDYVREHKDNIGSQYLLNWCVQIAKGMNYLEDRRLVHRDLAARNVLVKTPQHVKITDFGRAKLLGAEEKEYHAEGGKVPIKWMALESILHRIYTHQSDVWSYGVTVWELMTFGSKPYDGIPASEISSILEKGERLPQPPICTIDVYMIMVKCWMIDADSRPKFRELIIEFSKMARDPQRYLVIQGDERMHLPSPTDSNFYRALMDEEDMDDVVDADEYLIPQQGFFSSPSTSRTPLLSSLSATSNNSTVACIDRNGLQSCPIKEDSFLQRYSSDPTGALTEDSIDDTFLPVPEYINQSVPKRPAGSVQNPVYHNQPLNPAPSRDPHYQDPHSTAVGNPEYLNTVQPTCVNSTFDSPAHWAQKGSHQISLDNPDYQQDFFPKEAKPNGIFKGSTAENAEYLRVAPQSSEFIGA

IC50 [1, 13]	IC50 [2, 14]	IC50 [3, 15]	IC50 [4, 16]	IC50 [5, 17]	IC50 [6, 18]	IC50 [7, 19]	IC50 [8, 20]	IC50 [9, 21]	GI50 [10, 22]	GI50 [10, 23]	GI50 [10, 24]	GI50 [10, 25]	GI50 [10, 26]	GI50 [10, 27]	GI50 [10, 28]	GI50 ([11]; Homo sapiens, PC-9, 72 h)	GI50 [12, 29]	GI50 [10, 30]	GI50 [10, 31]	other results	Structure (SMILES)
> 5000 nM	734 nM	7.6 nM	24 nM	5.8 nM	2.9 nM	3.7 nM	10 nM	159 nM	27 nM	8 nM	234 nM	15 nM	29 nM	200 nM	10 nM	186 nM	3420 nM				Cc1cc2cc(n1)-c1cnn(C)c1OCCN1CC3CCC(CC3)(C1)n1c(nc3ccc(N4CCN(C5CC5)CC4)cc31)NC2=O [Example B36]
> 5000 nM	194 nM	13 nM	19 nM	9 nM	5.6 nM	3.9 nM	13 nM	99 nM	12 nM	5 nM	73 nM	9 nM	28 nM	74 nM	5 nM	106 nM	5040 nM				Cc1cc2cc(n1)-c1cnn(C)c1OCCN1CC3CCC(CC3)(C1)n1c(nc3ccc(N4CCC5(CN(C)C5)C4)cc31)NC2=O [Example B37]
> 5000 nM	> 5000 nM	> 5000 nM	> 5000 nM	> 5000 nM	> 5000 nM	2740 nM	> 5000 nM	> 5000 nM										549 nM	638 nM	GI50 [10, 32]: 2560 nM; GI50 [10, 33]: 350 nM; GI50 [10, 34]: 939 nM; GI50 [10, 35]: 4180 nM; GI50 [10, 36]: 1100 nM; GI50 [11]: 1930 nM; GI50 ([12]; A-431 cells): 7540 nM	Cc1cc2cc(n1)-c1cnn(C)c1OCCN1CC3CCC(C3)(C1)n1c(nc3ccc(N4CCN(C5CC5)CC4)cc31)NC2=O (single isomer, unassigned) [Example B55A]
121 nM	13 nM	3.1 nM	4.9 nM	3.9 nM	1.6 nM	2.5 nM	2 nM	3.9 nM										2 nM	2 nM	GI50 [10, 32]: 2 nM; GI50 [10, 33]: 2 nM; GI50 [10, 34]: 2 nM; GI50 [10, 35]: 2 nM; GI50 [10, 36]: 6 nM; GI50 [11]: 3 nM; GI50 ([12]; A-431 cells): 795 nM	Cc1cc2cc(n1)-c1cnn(C)c1OCCN1CC3CCC(C3)(C1)n1c(nc3ccc(N4CCC5(CC4)CCN5C)cc31)NC2=O (single isomer, unassigned) [Example B54B]
									4.5 nM	70 nM	47 nM	64 nM	37 nM	89 nM	105 nM	45 nM	3590 nM			IC50 ([1]; EGFR WT, 1 h, room temperature, read-out: IC50 (nM) @WT): > 5000 nM; IC50 ([2]; 1 h, room temperature, read-out: IC50 (nM) @L858R): 198 nM; IC50 ([3]; EGFR L858R-T790M, 1 h, room temperature, read-out: IC50 (nM) @L858R-T790M): 133 nM; IC50 ([4]; EGFR Del19, 1 mM ATP, 1 h, room temperature): 8.5 nM; IC50 ([5]; EGFR Del19-T790M, 1 h, room temperature, read-out: IC50 (nM) @Del19-T790M): 15 nM; IC50 ([6]; EGFR T790M-C797S-L858R, 1 h, room temperature, read-out: IC50 (nM) @T790M- C797S - L858R): 52 nM; IC50 ([7]; EGFR T790M-C797S-Del19, 1 mM ATP, 1 h, room temperature, read-out: IC50 (nM) @T790M - C797S - Del19): 12 nM; IC50 ([8]; EGFR Del19-C797S, 1 h, room temperature, read-out: IC50 (nM) @Del19-C797S): 6.6 nM; IC50 ([9]; EGFR L858-C797S, 1 h, room temperature, read-out: IC50 (nM) @L858-C797S): 60 nM	CN1CCN(c2ccc3nc4n(c3c2)C(C)(C)CCCCOc2c(cnn2C)-c2cc(cn(C)c2=O)C(=O)N4)CC1 [Example A112, 5,12,12,26-Tetramethyl-16-(4-methylpiperazin-1-yl)-7-oxa-4,5,13,20,22,26-hexaazapentacyclo[22.3.1.0^{2,6}.0^{13,21}.0^{14,19}]octacosa-1(28),2(6),3,14,16,18,20,24-octaene-23,27-dione]
